Experiments:
[1] = system: P. falciparum female gametocytes; assay: P. falciparum Dual Gamete Formation Assay (PfDGFA), female readout (Pfs25-positive female gametes); format: cell-based, Plasmodium falciparum NF54; conditions: for Average inhibition female (%): average of replicates; for % inhibition female (individual replicates) R1: replicate R1; for % inhibition female (individual replicates) R3: replicate R3; for % inhibition female (individual replicates) R4: replicate R4
Outline: (§1)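 Two sex-specific readouts come from one well: male exflagellation centres recorded by brightfield video right after activation, and female gametes scored by Cy3-anti-Pfs25 fluorescence after 24 h at 28°C.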

[2] = system: P. falciparum male gametocytes; assay: P. falciparum Dual Gamete Formation Assay (PfDGFA), male readout (exflagellation); format: cell-based, Plasmodium falciparum NF54; conditions: for Average inhibition male (%): average of replicates; for % inhibition male (individual replicates) R1: replicate R1; for % inhibition male (individual replicates) R3: replicate R3; for % inhibition male (individual replicates) R4: replicate R4; for Activity: hit = >50% inhibition in male or female readout in at least 3 replicates, 0 = no class assigned
Outline: as §1

[3] = 2µM, 24h preincubation with gametocytes prior to induction of gametogenesis
[4] = 2µM, 24h preincubation, hits selected on >50% inhibition in the female readout across replicates
[5] = 2µM, 24h preincubation, hits selected on >50% inhibition in the male readout across replicates
[6] = PfDGFA at 2µM, 24h preincubation
[7] = 2µM, 24h preincubation, number of replicates with >50% inhibition in the female readout
[8] = 2µM, 24h preincubation, number of replicates with >50% inhibition in the male readout
[9] = PfDGFA at 2µM, 24h preincubation with gametocytes prior to induction of gametogenesis
[10] = PfDGFA at 2µM, 24h preincubation with gametocytes

Compound | Average inhibition female (%) [1, 3] | % inhibition female (individual replicates) R1 [1, 3] | % inhibition female (individual replicates) R3 [1, 3] | % inhibition female (individual replicates) R4 [1, 3] | HitlevelF [1, 4] | Average inhibition male (%) [2, 3] | % inhibition male (individual replicates) R1 [2, 3] | % inhibition male (individual replicates) R3 [2, 3] | % inhibition male (individual replicates) R4 [2, 3] | HitlevelM [2, 5] | Activity [2, 6] | HitlevelF [1, 7] | HitlevelM [2, 8] | also measured
COc1cc(C(=O)NC2CCN(Cc3ccccc3)CC2)ccc1-c1nc2cc(Cl)c(Cl)cc2[nH]1 [TCMDC-140078] | 6.4% | 17.0% | -8.0% | 18.5% | 0 | 4.4% | 13.3% | 2.8% | 2.9% | 0 | 0 |  |  | 
CN(C)CCCOc1cccc(CCNCc2cccc(Oc3ccc(Cl)cc3)c2)c1.O=C(O)C(F)(F)F [TCMDC-140091] | 6.3% | 16.6% | -0.66% | -7.8% | 0 | 24.7% | 7.1% | 12.3% | 44.2% | 0 | 0 |  |  | 
CC(=O)Nc1ccc2[nH]cc(C3CCN(CC4CCC(NC(=O)/C=C/c5ccccc5Cl)CC4)CC3)c2n1 (stereo not drawn) [TCMDC-140111] | 28.1% | 31.7% | 20.9% | 26.6% |  | 33.8% | 38.4% |  | 14.3% |  |  | 0 | 0 | 
CC(=O)Nc1ccc2[nH]cc(C3CCN(CC4CCN(C(=O)/C=C/c5ccc(Cl)c(Cl)c5)CC4)CC3)c2n1 [TCMDC-140112] | 33.3% | 35.7% | 28.7% | 36.0% |  | 36.8% | 41.7% | 26.0% | 45.6% |  |  | 0 | 0 | 
CC(=O)Nc1ccc2[nH]cc(C3CCN(CC4CCC(NC(=O)/C=C/c5ccc(Cl)c(Cl)c5)CC4)CC3)c2n1 (stereo not drawn) [TCMDC-140114] | 33.1% | 26.2% | 29.8% | 41.8% |  | 48.3% | 53.7% | 39.7% | 57.6% |  |  | 0 | 2 | 
Nc1cc2c(C3CCN(CC4CCN(C(=O)/C=C/c5ccc(Cl)c(Cl)c5)CC4)CC3)c[nH]c2cn1 [TCMDC-140133] | 13.5% | 13.3% | 3.5% | 10.0% |  | 52.8% | 50.4% | 47.4% | 52.9% |  |  | 0 | 3 | 
O=C(/C=C/c1c(Cl)cccc1Cl)NC1CCC(CN2CCC(c3c[nH]c4ccncc34)CC2)CC1 (stereo not drawn) [TCMDC-140220] | 10.7% | 11.8% | 11.4% | 18.8% | 0 | 43.5% | 44.6% | 17.7% | 42.9% | 1 | 0 |  |  | 
CN(C)CCCOc1ccccc1CN1CC[C@H](NC(=O)c2ccc(Cl)c(Cl)c2)C1.O=C(O)C(F)(F)F [TCMDC-140310] | 10.5% | 10.3% | 9.3% | 14.4% | 0 | 6.1% | 4.0% |  | 4.7% | 0 | 0 |  |  | 
Cc1ccc2cc(NC(=O)CCCCCCCON3C(N)=NC(N)=NC34CCCCC4)ccc2n1.O=C(O)C(F)(F)F [TCMDC-140377] |  |  |  |  |  |  |  |  |  |  |  |  |  | % inhibition female (individual replicates) R1 [1, 9]: 7.6%; % inhibition female (individual replicates) R3 [1, 9]: -9.1%; % inhibition female (individual replicates) R4 [1, 9]: 0.33%; Average inhibition female (%) [1, 6]: 0.7%; % inhibition male (individual replicates) R1 [2, 9]: -16.0%; % inhibition male (individual replicates) R3 [2, 9]: -37.7%; % inhibition male (individual replicates) R4 [2, 9]: -32.5%; Average inhibition male (%) [2, 6]: -24.7%
Cc1cc(CNCCCCCCNCc2ccc(-c3ccccc3)cc2)ccc1O [TCMDC-140412] |  |  |  |  |  |  |  |  |  |  |  |  |  | % inhibition female (individual replicates) R1 [1, 9]: 8.1%; % inhibition female (individual replicates) R3 [1, 9]: -7.2%; % inhibition female (individual replicates) R4 [1, 9]: 4.6%; Average inhibition female (%) [1, 6]: 1.3%; % inhibition male (individual replicates) R1 [2, 9]: 6.5%; % inhibition male (individual replicates) R4 [2, 9]: 7.3%; Average inhibition male (%) [2, 6]: 9.5%
Cc1cc(CNCCCCCCCNCc2ccc(-c3ccccc3)cc2)ccc1O [TCMDC-140415] |  |  |  |  |  |  |  |  |  |  |  |  |  | % inhibition female (individual replicates) R1 [1, 9]: 15.4%; % inhibition female (individual replicates) R3 [1, 9]: -2.4%; % inhibition female (individual replicates) R4 [1, 9]: -10.0%; Average inhibition female (%) [1, 6]: 3.6%; % inhibition male (individual replicates) R1 [2, 9]: 37.4%; % inhibition male (individual replicates) R3 [2, 9]: 30.2%; % inhibition male (individual replicates) R4 [2, 9]: 70.9%; Average inhibition male (%) [2, 6]: 52.6%
NCc1cccc(-c2ccccc2CNC2CCN(Cc3ccccc3)CC2)c1.O=C(O)C(F)(F)F [TCMDC-140467] | 24.8% | 22.3% | 3.0% | 28.3% |  | 3.4% | -0.12% | -13.3% | 18.9% |  |  | 0 | 0 | 
O=C(O)C(F)(F)F.c1ccc(CN2CCC(NCc3ccc(-c4cccc(CNC5CCCC5)c4)cc3)CC2)cc1 [TCMDC-140491] | 15.2% | 11.0% | 20.4% | 13.9% | 0 | 4.9% | 9.8% |  | -11.4% | 0 | 0 |  |  | 
CC(C)CNCc1ccc(-c2cccc(CN(CCN(C)C)C(=O)CCC3CCCC3)c2)cc1.O=C(O)C(F)(F)F [TCMDC-140553] |  |  |  |  |  |  |  |  |  |  |  |  |  | Average inhibition female (%) [1, 10]: 30.3%; % inhibition female (individual replicates) R1 [1, 10]: 23.2%; % inhibition female (individual replicates) R3 [1, 10]: 20.6%; % inhibition female (individual replicates) R4 [1, 10]: 42.3%; HitlevelF ([1]; number of replicates with >50% inhibition in the female readout, 2µM): 0; Average inhibition male (%) [2, 10]: 71.6%; % inhibition male (individual replicates) R1 [2, 10]: 58.5%; % inhibition male (individual replicates) R3 [2, 10]: 51.6%; % inhibition male (individual replicates) R4 [2, 10]: 94.9%; HitlevelM ([2]; number of replicates with >50% inhibition in the male readout, 2µM): 4
